Measured values from patent US20240246960A1 (adMare Therapeutics Society, priority 2021, published 2024).
Like-named read-outs stand apart in the source and are kept apart here.

Key:
[1] = molecular target: T1, DNA-PK (Homo sapiens, UniProt P78527); test: DNA-PK Assay for Biochemical Enzymatic Inhibition (ADP Glo Kinase assay)
T1 construct: purchased Invitrogen PR9107A
How it was run: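 Human DNA-PK (25 ng) preincubated 15 min with compounds (ten three-fold dilutions) in HEPES pH 7.5, MgCl2, KCl, calf thymus DNA buffer, then substrate 434.4 μM and ATP 64.4 μM (final) for 60 min at room temperature. ADP-Glo luminescence; percent inhibition fitted by four-parameter regression for IC50.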

[2] = molecular target: T2, DNA-PK phosphorylation at Serine 2056 (Homo sapiens, UniProt P78527); test: Cellular Assay for Inhibition of DNA-PK Phosphorylation at Serine 2056 (FaDu cells, neocarzinostatin, sandwich ELISA); assay type: cell-based
T2 construct: host or cells: FaDu
How it was run: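 Readout was pSer2056 and total DNA-PK, measured by sandwich ELISA on protein-normalized lysates. Prior to lysis, compound was applied to FaDu cells for 1 h (0.3% DMSO), followed by 2 h of 1 μg/mL neocarzinostatin. IC50 values were fitted from log concentration versus % inhibition normalized to DMSO and NCS controls.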

[3] = molecular target: T3, pDNA-PK ser2056 induction in HCT116 spheroids (Homo sapiens, UniProt P78527); test: Multicellular tumour spheroid + radiation, pDNA-PK inhibition, HCT116; assay type: cell-based; conditions: 20 Gy, 20% O2
T3 construct: endogenous in cells; host or cells: HCT116 multicellular tumour spheroids
How it was run: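 EC50 (μM) is concentration halving radiation-induced pDNA-PK ser2056, scored by fluorescent immunostaining of cryosections 2 h after 20 Gy. HCT116 tumour spheroids (~0.5 mm, stirred, 20% O2/5% CO2, 37 °C) exposed to serial dilutions from 10 or 5 μM to 3.5 nM starting 1 h before irradiation.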

[4] = Microsomal stability assay, human liver microsomes; assay type: in vitro ADME; conditions: for microsomal CLint at 0.1 uM: both sexes, human, liver microsomes
Protocol: Samples were then mixed and centrifuged. Supernatants were used for HPLC-MS/MS analysis. […] Peak areas corresponding to the test compound were recorded.

[5] = Microsomal stability assay, mouse liver microsomes; conditions: for microsomal CLint at 0.1 uM: male, CD-1, mouse, liver microsomes, pH 7.4, Microsomal Stability Mouse Clint
Protocol: Mouse liver microsomes were obtained from a pool of 250 or more male CD-1 mice. […] Final microsomal concentration was 0.1 mg/mL and test compound concentration was 0.1 uM with a maximum of 0.01% DMSO. The test compound was pre-incubated with pooled liver microsomes in phosphate buffer (pH 7.4) for 5 min in a 37° C. shaking water bath. The reaction was initiated by adding NADPH-generating system and incubated for 0, 15, 30, 45, and 60 min. The reaction was stopped by transferring the incubation mixture to acetonitrile/methanol. Samples were then mixed and centrifuged. Supernatants were used for HPLC-MS/MS analysis. The HPLC system consisted of a binary LC pump with autosampler, a C-18 column, and a gradient. Peak areas corresponding to the test compound were recorded. The compound remaining was calculated by comparing the peak area at each time point to time zero. The half-life was calculated from the slope of the initial linear range of the logarithmic curve of compound remaining (%) vs. time, assuming first order kinetics. In addition, the intrinsic clearance (Clint) was calculated from the half-life.

[6] = Hepatocyte stability assay, mouse hepatocytes; assay type: in vitro ADME; conditions: for hepatocyte CLint at 1 uM: male, CD-1, mouse, cryopreserved hepatocytes
Protocol: (§1) Cryopreserved mouse hepatocytes were obtained from a pool of 10 or more male CD-1 mice. Cryopreserved human hepatocytes were obtained from a pool of 10 or more donors of mixed gender. Final hepatocyte density was 0.7 million viable cells per mL and test compound concentration was 1 uM with a maximum of 0.01% DMSO. Cryopreserved hepatocytes were thawed, washed, and resuspended in Krebs-Heinslet buffer (pH 7.3). The reaction was initiated by adding the test compound into cell suspension and incubated for 0, […], 1, 1.5, and 2 h, respectively, at 37° C./5% CO2. The reaction was stopped by adding acetonitrile into the incubation mixture. Samples were then mixed, transferred completely to another 96-well plate, and centrifuged. Supernatants were used for HPLC-MS/MS analysis. […] Peak areas corresponding to the test compound were recorded.

[7] = Hepatocyte stability assay, human hepatocytes; assay type: in vitro ADME; conditions: both sexes, human, cryopreserved hepatocytes, pH 7.3; Example 11
Protocol: as §1

[8] = Example 7, spheroid, cell line HCT115 [sic], read-out: EC50 (pDNA-PK inhibition, immunohistochemical endpoint)
[9] = Example 9 Study 2, read-out: Spheroid Cell line: HCT116 Immunohistochemical endpoint pDNA-PK inhibition EC50
[10] = pH 7.4, 0.1 mg/mL microsomes, 0.1 uM compound
[11] = 0.1 mg/mL microsomes, 0.1 uM compound

IC50 ([1]; Table 1) [nM]	IC50 ([2]; Table 1) [nM]	EC50 [3, 8] [nM]	EC50 [3, 9] [nM]	Microsomal Stability (human) % rem. 60 min [4]	microsomal CLint at 0.1 uM [4, 10] [µL/min/mg]	Microsomal Stability (mouse) % rem. 60 min [5]	microsomal CLint at 0.1 uM [5, 11] [µL/min/mg]	Hepatocyte Stability (mouse) % rem. 120 min ([6]; 120 min)	hepatocyte CLint at 1 uM ([6]; pH 7.3, 0.7 million cells per mL, 1 uM compound) [µL/min/1e6 cells]	IC50 ([1]; Table 2) [nM]	IC50 ([2]; Table 2) [nM]	Microsomal Stability (human) % rem. 60 min ([4]; Example 11)	microsomal CLint at 0.1 uM ([4]; pH 7.4, Example 11) [µL/min/mg]	hepatocyte CLint at 1 uM ([6]; pH 7.3, Example 11) [µL/min/1e6 cells]	Microsomal Stability (mouse) % rem. 60 min ([5]; Example 11)	microsomal CLint at 0.1 uM ([5]; Example 11) [µL/min/mg]	hepatocyte CLint at 1 uM [7] [µL/min/1e6 cells]	SMILES
–	–	–	–	–	–	–	–	–	–	< 0.5	< 100	G (% remaining = 50-75%)	< 116	> 8.2	G (% remaining = 50-75%)	< 116	–	CS(=O)(=O)Nc1cnc2cc(N3CCOCC3)nc(O[C@H]3CC[C@@H](Nc4ncccn4)CC3)c2c1 [LFA006, N-[7-Morpholino-5-[4-(pyrimidin-2-ylamino)cyclohexoxy]-1,6-naphthyridin-3-yl]methanesulfonamide]
–	–	–	–	–	–	–	–	–	–	< 0.5	1000 to 10000	H (% remaining = 75-100%)	< 116	–	H (% remaining = 75-100%)	< 116	–	CS(=O)(=O)Nc1cnc2cc(N3CCOCC3)nc(O[C@H]3CC[C@@H](NC(=O)c4ncccn4)CC3)c2c1 [LFA015, N-[4-[[3-(Methanesulfonamido)-7-morpholino-1,6-naphthyridin-5-yl]oxy]cyclohexyl]pyrimidine-2-carboxamide]
–	–	–	–	–	–	–	–	–	–	< 0.5	–	–	–	> 8.2	–	–	< 8.2	CS(=O)(=O)Nc1cnc2cc(N3CCOCC3)nc(O[C@H]3CC[C@@H](n4ccnc4)CC3)c2c1 [LFA017, N-[5-(4-Imidazol-1-ylcyclohexoxy)-7-morpholino-1,6-naphthyridin-3-yl]methanesulfonamide]
–	–	–	–	–	–	–	–	–	–	0.5 to 1	< 100	H (% remaining = 75-100%)	< 116	> 8.2	G (% remaining = 50-75%)	< 116	–	CS(=O)(=O)Nc1cnc2cc(N3CCOCC3)nc(O[C@H]3CC[C@@H](Nc4ncc(C(F)(F)F)cn4)CC3)c2c1 [LFA022, N-[7-Morpholino-5-[4-[[5-(trifluoromethyl)pyrimidin-2-yl]amino]cyclohexoxy]-1,6-naphthyridin-3-yl]methanesulfonamide]
–	–	–	–	–	–	–	–	–	–	0.5 to 1	100 to 1000	G (% remaining = 50-75%)	< 116	–	G (% remaining = 50-75%)	< 116	–	O=C(N[C@H]1CC[C@@H](Oc2nc(N3CCOCC3)cc3ncc(O)cc23)CC1)c1ncccn1 [LFA115, N-[4-[(3-Hydroxy-7-morpholino-1,6-naphthyridin-5-yl)oxy]cyclohexyl]pyrimidine-2-carboxamide]
–	–	–	–	–	–	–	–	–	–	< 0.5	< 100	H (% remaining = 75-100%)	< 116	–	F (% remaining = 25-50%)	< 116	–	Oc1cnc2cc(N3CCOCC3)nc(O[C@H]3CC[C@@H](Nc4ncccn4)CC3)c2c1 [LFA117, 7-Morpholino-5-[4-(pyrimidin-2-ylamino)cyclohexoxy]-1,6-naphthyridin-3-ol]

Further lines, the compound ahead of its results:

SMILES	IC50 ([1]; Table 1) [nM]	IC50 ([2]; Table 1) [nM]	EC50 [3, 8] [nM]	EC50 [3, 9] [nM]	Microsomal Stability (human) % rem. 60 min [4]	microsomal CLint at 0.1 uM [4, 10] [µL/min/mg]	Microsomal Stability (mouse) % rem. 60 min [5]	microsomal CLint at 0.1 uM [5, 11] [µL/min/mg]	Hepatocyte Stability (mouse) % rem. 120 min ([6]; 120 min)	hepatocyte CLint at 1 uM ([6]; pH 7.3, 0.7 million cells per mL, 1 uM compound) [µL/min/1e6 cells]	IC50 ([1]; Table 2) [nM]	IC50 ([2]; Table 2) [nM]	Microsomal Stability (human) % rem. 60 min ([4]; Example 11)	microsomal CLint at 0.1 uM ([4]; pH 7.4, Example 11) [µL/min/mg]	hepatocyte CLint at 1 uM ([6]; pH 7.3, Example 11) [µL/min/1e6 cells]	Microsomal Stability (mouse) % rem. 60 min ([5]; Example 11)	microsomal CLint at 0.1 uM ([5]; Example 11) [µL/min/mg]	hepatocyte CLint at 1 uM [7] [µL/min/1e6 cells]
O=C(N[C@H]1CC[C@@H](Oc2nc(N3CCOCC3)cc3ncccc23)CC1)c1cccnn1 [Compound 120, N-((1s,4s)-4-((7-morpholino-1,6-naphthyridin-5-yl)oxy)cyclohexyl)pyridazine-3-carboxamide]	0.5 to 1	100 to 1000	1000 to 10000	1000 to 10000	F (% remaining = 25-50%)	> 116	H (% remaining = 75-100%)	< 116	–	–	–	–	–	–	–	–	–	–
COc1ccnc(C(=O)N[C@H]2CC[C@@H](Oc3nc(N4CCOCC4)cc4ncccc34)CC2)n1 [Compound 131, 4-methoxy-N-((1s,4s)-4-((7-morpholino-1,6-naphthyridin-5-yl)oxy)cyclohexyl)pyrimidine-2-carboxamide]	0.5 to 1	< 100	1000 to 10000	1000 to 10000	E (% remaining = 0-25%)	> 116	E (% remaining = 0-25%)	> 116	–	–	–	–	–	–	–	–	–	–
O=C(N[C@H]1CC[C@@H](Oc2nc(N3CCOCC3)cc3ncccc23)CC1)c1cncs1 [Compound 137, N-((1s,4s)-4-((7-morpholino-1,6-naphthyridin-5-yl)oxy)cyclohexyl)thiazole-5-carboxamide]	< 0.5	100 to 1000	500 to 1000	500 to 1000	F (% remaining = 25-50%)	> 116	G (% remaining = 50-75%)	< 116	–	–	–	–	–	–	–	–	–	–
O=C(N[C@H]1CC[C@@H](Oc2nc(N3CCOCC3)cc3ncccc23)CC1)c1ncc[nH]1 [Compound 143, N-((1s,4s)-4-((7-morpholino-1,6-naphthyridin-5-yl)oxy)cyclohexyl)-1H-imidazole-2-carboxamide]	< 0.5	< 100	500 to 1000	500 to 1000	–	–	E (% remaining = 0-25%)	> 116	–	–	–	–	–	–	–	–	–	–
O=C(N[C@H]1CC[C@@H](Oc2nc(N3CCOCC3)cc3ncccc23)CC1)c1ccc[nH]1 [Compound 145]	0.5 to 1	< 100	10 to 500	10 to 500	–	–	E (% remaining = 0-25%)	> 116	–	–	–	–	–	–	–	–	–	–
CS(=O)(=O)Nc1cnc2cc(N3CCOCC3)nc(O[C@H]3CC[C@@H](NC(=O)c4ncccn4)CC3)c2c1 [Compound 177, N-((1s,4s)-4-((3-(methylsulfonamido)-7-morpholino-1,6-naphthyridin-5-yl)oxy)cyclohexyl)pyrimidine-2-carboxamide]	0.5 to 1	1000 to 10000	1000 to 10000	1000 to 10000	G (% remaining = 50-75%)	< 116	G (% remaining = 50-75%)	< 116	–	–	–	–	–	–	–	–	–	–
Nc1cnc2cc(N3CCOCC3)nc(O[C@H]3CC[C@@H](Nc4ncccn4)CC3)c2c1 [Compound 184, 7-morpholino-5-(((1s,4s)-4-(pyrimidin-2-ylamino)cyclohexyl)oxy)-1,6-naphthyridin-3-amine]	< 0.5	< 100	1000 to 10000	1000 to 10000	–	–	E (% remaining = 0-25%)	> 116	–	–	–	–	–	–	–	–	–	–
CN(c1cnc2cc(N3CCOCC3)nc(O[C@H]3CC[C@@H](Nc4ncccn4)CC3)c2c1)S(C)(=O)=O [Compound 197, N-methyl-N-(7-morpholino-5-(((1s,4s)-4-(pyrimidin-2-ylamino)cyclohexyl)oxy)-1,6-naphthyridin-3-yl)methanesulfonamide]	1 to 10	100 to 1000	–	–	–	–	–	–	G (% remaining = 50-75%)	> 8.2	–	–	–	–	–	–	–	–
COc1cnc(N[C@H]2CC[C@@H](Oc3nc(N4CCOCC4)cc4ncc(N)cc34)CC2)nc1 [Compound 202, 5-(((1s,4s)-4-((5-methoxypyrimidin-2-yl)amino)cyclohexyl)oxy)-7-morpholino-1,6-naphthyridin-3-amine]	< 0.5	< 100	1000 to 10000	1000 to 10000	–	–	E (% remaining = 0-25%)	> 116	–	–	–	–	–	–	–	–	–	–
